As a reminder, the IC50 is the concentration needed to halve the response being measured.

The target of this experiment is T1, Endothelial lipase (EL) (Homo sapiens, UniProt Q9Y5X9).
T1 construct: HT-1080 cells that were transformed using RAGE technology (Athersys) to overexpress endogenous EL; endogenous in cells; conditioned medium used
T1 sequence (Q9Y5X9 21-500): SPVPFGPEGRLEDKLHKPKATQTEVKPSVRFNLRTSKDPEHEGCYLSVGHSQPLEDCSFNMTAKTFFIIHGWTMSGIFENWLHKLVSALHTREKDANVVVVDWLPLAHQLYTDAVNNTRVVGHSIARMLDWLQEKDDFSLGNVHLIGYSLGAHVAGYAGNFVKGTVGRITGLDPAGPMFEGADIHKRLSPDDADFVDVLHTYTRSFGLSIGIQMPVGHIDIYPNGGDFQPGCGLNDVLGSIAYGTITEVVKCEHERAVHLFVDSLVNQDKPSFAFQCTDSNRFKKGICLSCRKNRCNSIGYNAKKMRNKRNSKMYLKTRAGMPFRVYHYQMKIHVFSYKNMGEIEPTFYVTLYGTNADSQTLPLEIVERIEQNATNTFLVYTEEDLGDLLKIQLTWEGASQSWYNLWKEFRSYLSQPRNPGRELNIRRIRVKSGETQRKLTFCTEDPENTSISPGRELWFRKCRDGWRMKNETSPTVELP
The experiment in a line: Endothelial lipase (EL) enzymatic assay, fluorescent substrate A10070 in DMPG vesicles. It is filed as biochemical. Conditions: EL from conditioned media of HT-1080 cells; compound preincubated 30 min at 37° C; read-out: EL IC50. The method, boiled down:
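Vesicles prepared: A10070 dried with DMPG, resuspended in HEPES pH 8.0/NaCl/EDTA, sonicated on ice. Enzyme incubated with compound 30 min at 37° C. Reaction started with 1:10 diluted vesicles. Fluorescence (490/530 nm) followed 60 min; slope from 300–900 secs gives rate.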
Turning to `NS(=O)(=O)NCc1nnc(C(c2nc3ccc(-c4ccccc4)cc3s2)S(=O)(=O)Cc2ccccc2F)o1` (stereo not shown) [Example 51, N-((5-(((2-fluorobenzyl)sulfonyl)(6-phenyl-1,3-benzothiazol-2-yl)methyl)-1,3,4-oxadiazol-2-yl)methyl)sulfamide], the IC50 is less than 0.01 µM.

With `NS(=O)(=O)NCc1nnc(C(c2nc3ccc(-c4ccccc4)cc3s2)S(=O)(=O)CCN2C(=O)c3ccccc3C2=O)o1` (stereo not shown) [Example 52, N-[(5-{(6-phenyl-1,3-benzothiazol-2-yl) ([2-(1,3-dioxo-1,3-dihydro-2H-isoindol-2-yl)ethyl]sulfonyl)methyl}-1,3,4-oxadiazol-2-yl)methyl]sulfuric diamide], the IC50 is less than 0.01 µM.

As for `NS(=O)(=O)NCc1nnc(C(c2nc3ccc(-c4ccccc4)cc3s2)S(=O)(=O)C2CCOCC2)o1` (stereo not shown) [Example 53, N-({5-[6-phenyl-1,3-benzothiazol-2-yl (tetrahydro-2H-pyran-4-ylsulfonyl)methyl]-1,3,4-oxadiazol-2-yl}methyl) sulfuric diamide], the IC50 is less than 0.01 µM.

Consider `NS(=O)(=O)NCc1nnc(C(c2nc3ccc(-c4ccccc4)cc3s2)S(=O)(=O)CCCc2ccccc2)o1` (stereo not shown) [Example 54, N-((5-((6-phenyl-1,3-benzothiazol-2-yl) ((3-phenylpropyl)sulfonyl)methyl)-1,3,4-oxadiazol-2-yl)methyl) sulfamide], for which the IC50 was roughly 0.01 µM.

With `COc1ccc(OCCCS(=O)(=O)C(c2nnc(CNS(N)(=O)=O)o2)c2nc3ccc(-c4ccccc4)cc3s2)cc1` (stereo not shown) [Example 55, N-((5-(((3-(4-methoxyphenoxy)propyl)sulfonyl) (6-phenyl-1,3-benzothiazol-2-yl)methyl)-1,3,4-oxadiazol-2-yl)methyl)sulfamide], the IC50 was less than 0.01 µM.

For the compound `NS(=O)(=O)NCc1nnc(C(c2nc3ccc(-c4ccccc4)cc3s2)S(=O)(=O)Cc2cccc(F)c2)o1` (stereo not shown) [Example 56, N-((5-(((3-fluorobenzyl)sulfonyl)(6-phenyl-1,3-benzothiazol-2-yl)methyl)-1,3,4-oxadiazol-2-yl)methyl)sulfamide], the IC50 was less than 0.01 µM.

`NS(=O)(=O)NCc1nnc(C(c2nc3ccc(-c4ccccc4)cc3s2)S(=O)(=O)Cc2cccc(Br)c2)o1` (stereo not shown) [Example 57]: the IC50 was less than 0.01 µM.

Turning to `NS(=O)(=O)NCc1nnc(C(c2nc3ccc(-c4ccccc4)cc3s2)S(=O)(=O)Cc2ccc(Cl)cc2)o1` (stereo not shown) [Example 58, N-((5-(((4-chlorobenzyl)sulfonyl)(6-phenyl-1,3-benzothiazol-2-yl)methyl)-1,3,4-oxadiazol-2-yl)methyl)sulfamide], the IC50 was less than 0.01 µM.

On to `NS(=O)(=O)NCc1nnc(C(c2nc3ccc(-c4ccccc4)cc3s2)S(=O)(=O)Cc2cc(Cl)cc(Cl)c2)o1` (stereo not shown) [Example 59, N-((5-(((3,5-dichlorobenzyl)sulfonyl)(6-phenyl-1,3-benzothiazol-2-yl)methyl)-1,3,4-oxadiazol-2-yl)methyl)sulfamide], for which the IC50 is less than 0.01 µM.

As for `NS(=O)(=O)NCc1nnc(C(c2nc3ccc(-c4ccccc4)cc3s2)S(=O)(=O)Cc2ccc(Cl)c(Cl)c2)o1` (stereo not shown) [Example 60, N-((5-(((3,4-chlorobenzyl)sulfonyl)(6-phenyl-1,3-benzothiazol-2-yl)methyl)-1,3,4-oxadiazol-2-yl)methyl)sulfamide], the IC50 is less than 0.01 µM.

As to `NS(=O)(=O)NCc1nnc(C(c2nc3ccc(-c4ccccc4)cc3s2)S(=O)(=O)CC2CC2)o1` (stereo not shown) [Example 61, N-[(5-{6-phenyl-1,3-benzothiazol-2-yl [(cyclopropylmethyl)sulfonyl]methyl}-1,3,4-oxadiazol-2-yl)methyl]sulfuric diamide], the IC50 is less than 0.01 µM.

With `NS(=O)(=O)NCc1nnc(C(c2nc3ccc(-c4ccccc4)cc3s2)S(=O)(=O)Cc2cccc(C(F)(F)F)c2)o1` (stereo not shown) [Example 62, N-((5-(((3-(trifluoromethyl)benzyl)sulfonyl) (6-phenyl-1,3-benzothiazol-2-yl)methyl)-1,3,4-oxadiazol-2-yl)methyl)sulfamide], the IC50 is less than 0.01 µM.

Turning to `NS(=O)(=O)NCc1nnc(C(c2nc3ccc(-c4ccccc4)cc3s2)S(=O)(=O)CCCC(F)(F)F)o1` (stereo not shown) [Example 63, N-[(5-{(6-phenyl-1,3-benzothiazol-2-yl) [(4,4,4-trifluorobutyl)sulfonyl]methyl}-1,3,4-oxadiazol-2-yl)methyl] sulfuric diamide], the IC50 was less than 0.01 µM.

Regarding `Cc1cccc(CS(=O)(=O)C(c2nnc(CNS(N)(=O)=O)o2)c2nc3ccc(-c4ccccc4)cc3s2)c1` (stereo not shown) [Example 64, N-((5-(((3-methylbenzyl)sulfonyl)(6-phenyl-1,3-benzothiazol-2-yl)methyl)-1,3,4-oxadiazol-2-yl)methyl)sulfamide], the IC50 was less than 0.01 µM.

`CCS(=O)(=O)C(c1nnc(CNS(N)(=O)=O)o1)c1nc2ccc(-c3ccccc3)cc2s1` (stereo not shown) [Example 65, N-({5-[(ethylsulfonyl) (6-phenyl-1,3-benzothiazol-2-yl)methyl]-1,3,4-oxadiazol-2-yl}methyl)sulfuric diamide]: the IC50 was less than 0.01 µM.

For `CCCS(=O)(=O)C(c1nnc(CNS(N)(=O)=O)o1)c1nc2ccc(-c3ccccc3)cc2s1` (stereo not shown) [Example 66, N-({5-[(propylsulfonyl) (6-phenyl-1,3-benzothiazol-2-yl)methyl]-1,3,4-oxadiazol-2-yl}methyl) sulfuric diamide], the IC50 was less than 0.01 µM.

Regarding `NS(=O)(=O)NCc1nnc(C(c2nc3ccc(-c4ccccc4)cc3s2)S(=O)(=O)C2CCCC2)o1` (stereo not shown) [Example 67, N-({5-[(cyclopentylsulfonyl) (6-phenyl-1,3-benzothiazol-2-yl)methyl]-1,3,4-oxadiazol-2-yl}methyl)sulfuric diamide], the IC50 was less than 0.01 µM.

Regarding `CC(C)CS(=O)(=O)C(c1nnc(CNS(N)(=O)=O)o1)c1nc2ccc(-c3ccccc3)cc2s1` (stereo not shown) [Example 68, N-[(5-{6-phenyl-1,3-benzothiazol-2-yl[(2-methylpropyl)sulfonyl]methyl}-1,3,4-oxadiazol-2-yl)methyl]sulfuric diamide], the IC50 is less than 0.01 µM.

`NS(=O)(=O)NCc1nnc(C(c2nc3ccc(-c4ccccc4)cc3s2)S(=O)(=O)Cc2ccc(F)cc2)o1` (stereo not shown) [Example 69, N-((5-(((4-fluorobenzyl)sulfonyl)(6-phenyl-1,3-benzothiazol-2-yl)methyl)-1,3,4-oxadiazol-2-yl)methyl)sulfamide]: the IC50 was less than 0.01 µM.

For the compound `Cc1ccccc1CS(=O)(=O)C(c1nnc(CNS(N)(=O)=O)o1)c1nc2ccc(-c3ccccc3)cc2s1` (stereo not shown) [Example 70, N-((5-(((2-methylbenzyl)sulfonyl)(6-phenyl-1,3-benzothiazol-2-yl)methyl)-1,3,4-oxadiazol-2-yl)methyl) sulfamide], the IC50 is less than 0.01 µM.

On to `NS(=O)(=O)NCc1nnc(C(c2nc3ccc(-c4ccccc4)cc3s2)S(=O)(=O)CC2CCCCC2)o1` (stereo not shown) [Example 71, N-((5-(((cyclohexylmethyl)sulfonyl)(6-phenyl-1,3-benzothiazol-2-yl)methyl)-1,3,4-oxadiazol-2-yl)methyl)sulfamide], for which the IC50 was less than 0.01 µM.

As for `NS(=O)(=O)NCc1nnc(C(c2nc3ccc(-c4ccccc4)cc3s2)S(=O)(=O)Cc2cc(C(F)(F)F)cc(C(F)(F)F)c2)o1` (stereo not shown) [Example 72, N-((5-(((3,5-bis (trifluoromethyl)benzyl)sulfonyl) (6-phenyl-1,3-benzothiazol-2-yl)methyl)-1,3,4-oxadiazol-2-yl)methyl)sulfamide], the IC50 is less than 0.01 µM.

The values above are taken from patent publication US20140011799A1 (Bristol-Myers Squibb Company, priority 2012, published 2014).
